In the NIST ThermoML archive (doi:10.1021/je700546r):
Values joined by “and” are separate entries in the source; they are usually repeats but may differ in a detail not shown here. Identical values can stand only once.

Legend:
[1] = molar heat capacity at constant pressure; conditions: 100 kPa, Small (less than 1 g) adiabatic calorimetry
[2] = Molar enthalpy of transition or fusion; conditions: Crystal 1; Adiabatic calorimetry
[3] = for Triple point temperature: Adiabatic calorimetry

ON=C1CCCCC1 [cyclohexanone oxime]
Conditions | molar heat capacity at constant pressure [J/K/mol] | vapor or sublimation pressure
[1], 5 K, Crystal 3 | 0.3674 | –
[1], 10 K, Crystal 3 | 2.982 | –
[1], 15 K, Crystal 3 | 7.554 | –
[1], 20 K, Crystal 3 | 12.9 | –
[1], 25 K, Crystal 3 | 18.36 | –
[1], 30 K, Crystal 3 | 23.53 | –
[1], 35 K, Crystal 3 | 28.21 | –
[1], 40 K, Crystal 3 | 32.42 | –
[1], 45 K, Crystal 3 | 36.26 | –
[1], 50 K, Crystal 3 | 39.78 | –
[1], 60 K, Crystal 3 | 45.91 | –
[1], 70 K, Crystal 3 | 51.28 | –
[1], 80 K, Crystal 3 | 56.24 | –
[1], 90 K, Crystal 3 | 60.87 | –
[1], 100 K, Crystal 3 | 65.47 | –
[1], 110 K, Crystal 3 | 69.94 | –
[1], 120 K, Crystal 3 | 74.33 | –
[1], 130 K, Crystal 3 | 78.7 | –
[1], 140 K, Crystal 3 | 83.1 | –
[1], 150 K, Crystal 3 | 87.59 | –
[1], 160 K, Crystal 3 | 92.16 | –
[1], 170 K, Crystal 3 | 96.94 | –
[1], 180 K, Crystal 3 | 102.1 | –
[1], 190 K, Crystal 3 | 107.7 | –
[1], 200 K, Crystal 3 | 113.9 | –
[1], 210 K, Crystal 3 | 122.3 | –
[1], 220 K, Crystal 3 | 132.6 | –
[1], 230 K, Crystal 3 | 141.9 | –
[1], 240 K, Crystal 3 | 150.7 | –
[1], 250 K, Crystal 2 | 153.4 | –
[1], 260 K, Crystal 2 | 163.4 | –
[1], 270 K, Crystal 2 | 174.5 | –
[1], 280 K, Crystal 2 | 184.4 | –
[1], 290 K, Crystal 2 | 191.9 | –
[1], 298.15 K, Crystal 2 | 196.2 | –
[1], 300 K, Crystal 2 | 197.1 | –
[1], 310 K, Crystal 1 | 192.8 | –
[1], 320 K, Crystal 1 | 197.5 | –
[1], 330 K, Crystal 1 | 203 | –
[1], 340 K, Crystal 1 | 209 | –
[1], 350 K, Crystal 1 | 215.2 | –
[1], 360 K, Crystal 1 | 221.1 | –
[1], 362.2 K, Crystal 1 | 222.4 | –
[1], 362.2 K, Liquid | 271.5 | –
[1], 365 K, Liquid | 273.1 | –
[1], 370 K, Liquid | 276 | –
[3], 285.7 K, Crystal 2, Transpiration method | – | 0.00078 kPa
[3], 288.11 K, Crystal 2, Knudsen effusion | – | 0.001028 kPa
[3], 290 K, Crystal 2, Transpiration method | – | 0.00118 kPa
[3], 292.6 K, Crystal 2, Transpiration method | – | 0.00157 kPa
[3], 293.82 K, Crystal 2, Knudsen effusion | – | 0.00186 kPa
[3], 293.87 K, Crystal 2, Knudsen effusion | – | 0.001759 kPa
[3], 295.1 K, Crystal 2, Transpiration method | – | 0.00215 kPa
[3], 298.1 K, Crystal 2, Transpiration method | – | 0.00275 kPa
[3], 298.2 K, Crystal 2, Transpiration method | – | 0.00302 kPa and 0.00293 kPa
[3], 298.77 K, Crystal 2, Knudsen effusion | – | 0.003118 kPa
[3], 301.1 K, Crystal 2, Transpiration method | – | 0.00396 kPa
[3], 302.9 K, Crystal 1, Transpiration method | – | 0.005 kPa
[3], 303.73 K, Crystal 1, Knudsen effusion | – | 0.005234 kPa
[3], 303.74 K, Crystal 1, Knudsen effusion | – | 0.005145 kPa
[3], 305.4 K, Crystal 1, Transpiration method | – | 0.00626 kPa
[3], 307.6 K, Crystal 1, Transpiration method | – | 0.00806 kPa
[3], 308.7 K, Crystal 1, Knudsen effusion | – | 0.00837 kPa
[3], 310.2 K, Crystal 1, Transpiration method | – | 0.01034 kPa
[3], 313 K, Crystal 1, Transpiration method | – | 0.0136 kPa
[3], 313.62 K, Crystal 1, Knudsen effusion | – | 0.01375 kPa
[3], 315.3 K, Crystal 1, Transpiration method | – | 0.01601 kPa
[3], 318 K, Crystal 1, Transpiration method | – | 0.02155 kPa
[3], 320.3 K, Crystal 1, Transpiration method | – | 0.02671 kPa
[3], 323.1 K, Crystal 1, Transpiration method | – | 0.03364 kPa
[3], 323.32 K, Crystal 1, Knudsen effusion | – | 0.03373 kPa
[3], 323.35 K, Crystal 1, Knudsen effusion | – | 0.03472 kPa
[3], 325.4 K, Crystal 1, Transpiration method | – | 0.04273 kPa
[3], 328 K, Crystal 1, Transpiration method | – | 0.05312 kPa
[3], 330.4 K, Crystal 1, Transpiration method | – | 0.06593 kPa
[3], 333.1 K, Crystal 1, Transpiration method | – | 0.08234 kPa
[3], 338.2 K, Crystal 1, Transpiration method | – | 0.1232 kPa
[3], 340.2 K, Crystal 1, Transpiration method | – | 0.1376 kPa
[3], 343.3 K, Crystal 1, Transpiration method | – | 0.1758 kPa
[3], 345.6 K, Crystal 1, Transpiration method | – | 0.213 kPa
[3], 348.3 K, Crystal 1, Transpiration method | – | 0.2639 kPa

Conditions | Molar enthalpy of transition or fusion [kcal/mol]
[2] | 2.977

[3], Liquid, Transpiration method
Conditions | vapor or sublimation pressure [kPa]
364.6 K | 0.8624
365.7 K | 0.8948
367.9 K | 1.03
369.7 K | 1.119
370.5 K | 1.181
373.6 K | 1.388
373.7 K | 1.405
376.6 K | 1.661
377.7 K | 1.759
377.8 K | 1.786
379.7 K | 1.922
381.8 K | 2.124
382.8 K | 2.221
385.8 K | 2.574
388.9 K | 3.046
391.9 K | 3.486
394.9 K | 3.978

[3]
Conditions | Triple point temperature [K]
Crystal 1 | 362.2
Crystal 2 | 301.5
Crystal 3 | 241.5
